Series [1] concerns C57BL/6cnc mice. The series is described as follows: Synergistic effect of Example 7 with other NASH compounds in mouse model. The format is in vivo. Particulars: NASH mice, single agents, 2-week treatment. An excerpt: There are other candidates being developped for inflammation, metabolism syndromes or NASH These include glucagon-like peptide-1 (GLP-1) receptor agonist liraglutide, peroxisome proliferator-activated receptor-α and -β (PPAR-α/δ) agonist elafibranor, and nuclear erythroid 2-related factor 2 (NRF2) activator bardoxolone methyl (CDDO-Me). These candidates target different proteins and pathways, therefore have different mechanisms of action related to steatosis, inflammation, and fibrosis.
C57BL/6cnc mice were fed with high-fat diet containing 60 kacl % fat and 0.10% methionine (no added choline) (Research Diets, A06071302) for 12 weeks to induce NASH model. After 12-week diet induction, the mice had increased plasma levels of TC, LDL-c, ALT, and fibrosis markers. […] An Example 7 alone group and a vehicle group were also set up for controls. […] After 2-week treatment, serum biochemistry was measured; liver was collected to measure liver TC and TG. Livers were punched in 2 mm diameter and fixed, sectioned and stained with Sirius Red, and the fibrosis and steatosis were scored.

In a further series the target is T1, CYP 1A2 (Homo sapiens, UniProt P05177).
T1 construct: from tissue; host or cells: human liver microsomes
T1 sequence (P05177 1-516): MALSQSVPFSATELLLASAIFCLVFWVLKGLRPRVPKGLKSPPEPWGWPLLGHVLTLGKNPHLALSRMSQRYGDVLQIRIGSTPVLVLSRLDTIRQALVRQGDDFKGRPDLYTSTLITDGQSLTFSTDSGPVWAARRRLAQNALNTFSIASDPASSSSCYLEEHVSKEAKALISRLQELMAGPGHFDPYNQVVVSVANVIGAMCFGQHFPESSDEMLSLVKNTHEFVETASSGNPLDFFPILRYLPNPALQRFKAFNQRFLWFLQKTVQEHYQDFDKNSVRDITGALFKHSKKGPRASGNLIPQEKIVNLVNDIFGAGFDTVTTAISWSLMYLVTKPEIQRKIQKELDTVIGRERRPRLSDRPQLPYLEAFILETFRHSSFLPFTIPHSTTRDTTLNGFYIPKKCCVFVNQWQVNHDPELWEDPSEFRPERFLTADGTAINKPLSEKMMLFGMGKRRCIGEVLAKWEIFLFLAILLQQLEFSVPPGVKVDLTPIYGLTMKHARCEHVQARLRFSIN
The series is described as follows: CYP inhibition in human liver microsome, 1A2. It counts as in vitro ADME. Particulars: human liver microsomes, substrate phenacetin, top 50 μM; read-out: CYP450 inhibition IC50 1A2. As for the experimental part:
(§1) Test compounds were evaluated for CYP inhibition using human liver microsomes (HLM). Test compounds were 1:3 serially diluted starting at 50 μM to generate 7 different concentrations. After incubation of diluted test compounds with HLM, a substrate cocktail composed of phenacetin (10 uM), amodiaquine (2 uM), diclofenac (5 uM), s-mephenytoin (30 uM), dextromethorphan (5 uM), and midazolam (2 uM) was added to check the remaining CYP activity for CYP 1A2, 2C8, 2C9, 2C19, 2D6 and 3A4. The CYP activity was measured by detecting the peak area of individual metabolites of know CYP substrates using LC/MS/MS. A percentage of inhibition of CYP was calculated at each final concentration of test compound, through which an IC50 was fitted to represent the inhibition potential.
Background: Liver microsomes are a subcellular fraction often used to study metabolism.

For a further series, the target named is T2, THRα-LBD (Homo sapiens, UniProt P10827).
T2 construct: purchased ThermoFisher
The series is described as follows: THR coactivator recruitment assay (LanthaScreen TR-FRET), THRα. The format is biochemical.

For series [2], the target named is T3, THRβ-LBD (Homo sapiens, UniProt P10828).
T3 sequence (P10828 217-461 limits assumed): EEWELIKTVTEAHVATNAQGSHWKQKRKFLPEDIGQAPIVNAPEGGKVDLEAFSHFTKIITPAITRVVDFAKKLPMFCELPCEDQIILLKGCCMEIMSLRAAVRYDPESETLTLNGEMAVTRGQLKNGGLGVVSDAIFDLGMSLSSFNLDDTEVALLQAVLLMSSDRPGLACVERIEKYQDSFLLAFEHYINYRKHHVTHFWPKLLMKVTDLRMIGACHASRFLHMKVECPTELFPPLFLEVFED

For another series, the target named is T4, CYP 2D6 (Homo sapiens, UniProt P10635).
T4 construct: from tissue; host or cells: human liver microsomes
The series is described as follows: CYP inhibition in human liver microsome, 2D6. The format is in vitro ADME. The settings on record: human liver microsomes, substrate dextromethorphan, top 50 μM; read-out: CYP450 inhibition IC50 2D6. As for the experimental part: as §1

In another series the target is T5, CYP 2C19 (Homo sapiens, UniProt P33261).
T5 construct: from tissue; host or cells: human liver microsomes
The series can be described thus: CYP inhibition in human liver microsome, 2C19. It counts as in vitro ADME. Particulars: human liver microsomes, substrate s-mephenytoin, top 50 μM; read-out: CYP450 inhibition IC50 2C19. As for the experimental part:
as §1

The next series deals with T6, CYP 2C8 (Homo sapiens, UniProt P10632).
T6 construct: from tissue; host or cells: human liver microsomes
T6 sequence (P10632 1-490): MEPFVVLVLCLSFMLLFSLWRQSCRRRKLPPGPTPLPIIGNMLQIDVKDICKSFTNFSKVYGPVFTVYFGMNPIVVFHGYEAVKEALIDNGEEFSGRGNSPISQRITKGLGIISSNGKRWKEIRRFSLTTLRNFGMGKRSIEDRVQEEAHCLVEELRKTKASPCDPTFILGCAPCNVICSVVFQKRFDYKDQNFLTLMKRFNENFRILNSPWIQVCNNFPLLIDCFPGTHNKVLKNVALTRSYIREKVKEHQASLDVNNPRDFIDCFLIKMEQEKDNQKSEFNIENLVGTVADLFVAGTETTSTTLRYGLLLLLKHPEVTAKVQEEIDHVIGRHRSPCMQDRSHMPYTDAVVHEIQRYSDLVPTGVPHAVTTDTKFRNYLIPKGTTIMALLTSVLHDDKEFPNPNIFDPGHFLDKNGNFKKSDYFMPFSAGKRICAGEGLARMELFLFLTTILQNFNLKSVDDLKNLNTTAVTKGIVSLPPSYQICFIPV
The series can be described thus: CYP inhibition in human liver microsome, 2C8. It counts as in vitro ADME. The settings on record: human liver microsomes, substrate amodiaquine, top 50 μM; read-out: CYP450 inhibition IC50 2C8. As for the experimental part:
as §1

Series [3] relates to C57BL/6cnc mice. The series is described as follows: Cholesterol-lowering efficacy in high cholesterol diet-induced hypercholesterolemia mouse model. The format is in vivo. As for the experimental part:
To further confirm the PD effects of compounds, another diet induced NAFLD mouse model was used. C57BL/6cnc mice were fed with the diet containing 1.5% cholesterol and 0.5% cholic acid (Research Diets, D12109C) for 2 weeks prior to the initiation of treatment. The cholesterol lowering efficacy of compounds disclosed herein was tested in two separate studies. […] Thyroid hormone T3 (0.1 mg/kg, intraperitoneal injection) was evaluated as a positive control in the second study. The treatment lasted two weeks with daily oral gavage. Blood samples were taken at the end of study for plasma cholesterol and LDL-c detection. At the end of study, the liver tissues were taken for measurement of the hepatic cholesterol levels. DIO1 is a THRβ target gene in liver, and its mRNA level reflects the activity of THRO. Therefore, the expression of DIO1 was also quantitated in liver tissue by qPCR to examine the target engagement by these compounds. The compound concentration was quantified in blood, liver and heart.

Series [4] has as its target T3, THRβ-LBD. The series is described as follows: THR coactivator recruitment assay (LanthaScreen TR-FRET), THRβ.
The target of another series is T7, CYP 3A4 (Homo sapiens, UniProt P08684).
T7 construct: from tissue; host or cells: human liver microsomes
The series can be described thus: CYP inhibition in human liver microsome, 3A4. It counts as in vitro ADME. Particulars: human liver microsomes, substrate midazolam, top 50 μM; read-out: CYP450 inhibition IC50 3A4. As for the experimental part: as §1

In the next series the target is T8, CYP 2C9 (Homo sapiens, UniProt P11712).
T8 construct: from tissue; host or cells: human liver microsomes
The series is described as follows: CYP inhibition in human liver microsome, 2C9. Particulars: human liver microsomes, substrate diclofenac, top 50 μM; read-out: CYP450 inhibition IC50 2C9. It counts as in vitro ADME. As for the experimental part: as §1

Series [5] deals with C57BL/6cnc mice. The series can be described thus: Cholesterol-lowering efficacy in trans-fat AMLN diet-induced hypercholesterolemia mouse model. The format is in vivo. The settings on record: AMLN diet mice, daily oral gavage 2 weeks, 0.3-3 mg/kg (Example 7) or 1 and 3 mg/kg. As for the experimental part:
C57BL/6cnc mice were fed with AMVLN diet containing 40 Kcal % Fat, 20 Kcal % Fructose and 2% Cholesterol (Research Diets, D09100301) for 5 weeks to induce hypercholesterolemia. The cholesterol lowering efficacy of compounds disclosed herein were tested in two separate studies. […] Thyroid hormone T3 (0.1 mg/kg, intraperitoneal injection) was evaluated as a positive control in both studies. The treatment lasted two weeks with daily oral gavage. Blood samples were taken before the dosing on the first day and again at the end of study for detection of plasma cholesterol (TC), triglycerides (TG) and LDL-c. […] At the end of study, the liver tissues were taken for measuring the hepatic TC and TG levels. The compound concentration was quantified in blood, liver and heart.

A further series has as its system α-MHC. The series is described as follows: Heart safety evaluation in hypothyroid rat: cardiac α-MHC expression. The format is in vivo. Particulars: intraperitoneal, 37.5 mg/kg (T3 0.1 mg/kg), heart tissue after 6 hours. As for the experimental part: (§2) SD Rats underwent thyroidectomy and recovered for 10 days. T3 and T4 were tested to confirm the complete thyroidectomy. […] Note that the dose for these compounds was […] higher than their therapeutic dose (1 mg/kg by oral gavage) in mouse models. For comparison, thyroid hormone T3 was also tested at 0.1 mg/kg with intraperitoneal injection. […] After 6 hours, the heart tissues were collected to quantitate the expression of α-MHC, a thyroid hormone responsive and THRα-target gene in heart.

Another series deals with Thyroidectomized rats. The series can be described thus: Heart safety evaluation in hypothyroid rat: heart rate. The format is in vivo. The settings on record: 0.1 mg/kg intraperitoneal injection, first 30 minutes. As for the experimental part:
as §2

Where [6] appears, read: maximum activity relative to the maximum activity of 500 nM T3.
Where [7] appears, read: high cholesterol diet mice, 0.3, 1, 3 mg/kg daily oral gavage, 2-week treatment.

Some results are limits rather than exact numbers.

Data on three molecules can be found in patent US12358899B2, “Thyroid hormone receptor agonists and uses thereof” (XIZANG HAISCO PHARMACEUTICAL CO., LTD., priority 2018, dated 2025).

T2 sequence (P10827 163-410 isoform P10827-2 limits assumed, other chains not shown): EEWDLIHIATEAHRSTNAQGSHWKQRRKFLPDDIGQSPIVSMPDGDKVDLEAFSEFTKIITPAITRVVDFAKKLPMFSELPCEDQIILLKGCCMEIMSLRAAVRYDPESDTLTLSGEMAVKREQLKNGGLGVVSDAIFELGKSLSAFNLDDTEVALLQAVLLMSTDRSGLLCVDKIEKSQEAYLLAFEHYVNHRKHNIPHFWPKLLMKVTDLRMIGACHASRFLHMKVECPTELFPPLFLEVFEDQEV
T8 sequence (P11712 whole entry): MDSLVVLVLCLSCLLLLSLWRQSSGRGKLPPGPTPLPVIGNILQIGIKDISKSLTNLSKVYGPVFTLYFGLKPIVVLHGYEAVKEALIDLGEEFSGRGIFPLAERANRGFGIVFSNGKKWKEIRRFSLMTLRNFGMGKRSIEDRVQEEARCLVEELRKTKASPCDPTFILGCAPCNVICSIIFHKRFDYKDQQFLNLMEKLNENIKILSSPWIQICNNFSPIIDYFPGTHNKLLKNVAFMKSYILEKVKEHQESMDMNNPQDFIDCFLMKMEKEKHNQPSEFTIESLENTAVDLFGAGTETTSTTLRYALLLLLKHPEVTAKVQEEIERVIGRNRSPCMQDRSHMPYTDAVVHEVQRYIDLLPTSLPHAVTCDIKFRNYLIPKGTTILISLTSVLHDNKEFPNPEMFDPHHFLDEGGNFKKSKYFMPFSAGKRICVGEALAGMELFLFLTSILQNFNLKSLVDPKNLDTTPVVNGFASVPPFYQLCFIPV
T4 sequence (P10635 whole entry): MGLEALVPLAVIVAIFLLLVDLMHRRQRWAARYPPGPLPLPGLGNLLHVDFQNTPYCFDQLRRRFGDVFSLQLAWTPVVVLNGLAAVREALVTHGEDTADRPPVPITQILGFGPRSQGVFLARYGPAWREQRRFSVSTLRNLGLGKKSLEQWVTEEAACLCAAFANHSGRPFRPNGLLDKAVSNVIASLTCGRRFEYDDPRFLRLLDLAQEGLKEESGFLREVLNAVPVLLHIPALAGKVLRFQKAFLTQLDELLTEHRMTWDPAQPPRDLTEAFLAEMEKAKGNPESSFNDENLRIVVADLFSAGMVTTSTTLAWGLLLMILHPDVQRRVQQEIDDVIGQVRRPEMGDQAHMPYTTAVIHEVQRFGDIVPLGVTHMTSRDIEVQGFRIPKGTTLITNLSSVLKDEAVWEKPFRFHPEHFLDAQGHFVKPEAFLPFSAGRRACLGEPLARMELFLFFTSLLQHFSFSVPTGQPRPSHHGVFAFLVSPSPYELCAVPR
T7 sequence (P08684 whole entry): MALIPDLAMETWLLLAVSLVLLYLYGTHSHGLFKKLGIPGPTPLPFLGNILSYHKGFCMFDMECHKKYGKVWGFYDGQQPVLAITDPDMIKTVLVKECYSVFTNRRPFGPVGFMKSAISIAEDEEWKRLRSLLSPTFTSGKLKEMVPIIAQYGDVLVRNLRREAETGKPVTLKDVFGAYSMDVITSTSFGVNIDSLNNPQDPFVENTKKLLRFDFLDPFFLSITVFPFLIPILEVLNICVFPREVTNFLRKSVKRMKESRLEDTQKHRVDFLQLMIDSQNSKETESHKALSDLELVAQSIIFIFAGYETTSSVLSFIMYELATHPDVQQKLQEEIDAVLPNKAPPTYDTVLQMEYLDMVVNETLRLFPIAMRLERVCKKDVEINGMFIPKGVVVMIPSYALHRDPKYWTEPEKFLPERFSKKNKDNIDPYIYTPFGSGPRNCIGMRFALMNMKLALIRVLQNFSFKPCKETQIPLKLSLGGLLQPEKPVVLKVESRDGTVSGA
T5 sequence (P33261 whole entry): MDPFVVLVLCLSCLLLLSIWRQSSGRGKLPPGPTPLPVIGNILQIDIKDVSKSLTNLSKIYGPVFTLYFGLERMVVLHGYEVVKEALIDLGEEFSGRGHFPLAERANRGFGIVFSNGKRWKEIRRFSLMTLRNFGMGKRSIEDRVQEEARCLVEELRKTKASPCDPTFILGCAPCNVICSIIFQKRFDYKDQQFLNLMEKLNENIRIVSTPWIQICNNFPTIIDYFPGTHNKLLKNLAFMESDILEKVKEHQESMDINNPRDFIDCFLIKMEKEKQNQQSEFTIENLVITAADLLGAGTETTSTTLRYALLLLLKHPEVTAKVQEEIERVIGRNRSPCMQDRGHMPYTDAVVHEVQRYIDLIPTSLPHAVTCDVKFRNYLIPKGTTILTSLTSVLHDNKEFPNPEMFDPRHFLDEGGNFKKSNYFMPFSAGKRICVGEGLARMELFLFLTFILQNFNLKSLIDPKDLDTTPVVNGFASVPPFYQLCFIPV
Procedure for THRα-LBD: The coactivator recruitment assay was performed using LanthaScreen™ TR-FRET TR coactivator assay kit (ThermoFisher). […] The diluted test compounds were mixed with the same volume of other reagents (10 μl:10 μl). […] In addition, the selectivity for each compound was normalized for the selectivity of T3 run in the same assay.

As for `CSc1ccc(C(=O)/C=C/c2cc(C)c(OC(C)(C)C(=O)O)c(C)c2)cc1` [Elafibranor, reference compound], the “liver weight, liver TC, liver TG, plasma TC, LDL-c, ALT, fibrosis, steatosis” value with C57BL/6cnc mice [1] is recorded as “reduced all or some of these parameters”.
In general, IC50 refers to the concentration needed to halve the response being measured. As for `[2H]c1c(C)c(Oc2cc(C(C([2H])([2H])[2H])C([2H])([2H])[2H])c(=O)[nH]n2)c(Cl)c([2H])c1-n1nc(C#N)c(=O)[nH]c1=O` [Example 50, 2-(3-chloro-5-methyl-4-((6-oxo-5-(propan-2-yl-1,1,1,3,3,3-d6)-1,6-dihydropyridazin-3-yl)oxy)phenyl-2,6-d2)-3,5-dioxo-2,3,4,5-tetrahydro-1,2,4-triazine-6-carbonitrile], the IC50 on CYP 1A2 is greater than 50 µM; at CYP 2D6, greater than 50 µM; on CYP 2C19, greater than 50 µM; on CYP 2C8, 4.19 µM; on CYP 3A4 it was greater than 50 µM; on CYP 2C9, 41.4 µM. Also, the EC50 was in the range of 1 to 10 µM on THRα-LBD (EC50 class from TR-FRET ratio 520:495 dose response, read-out: THRα binding) and 0.1 to 1 µM on THRβ-LBD [4]. The “THRα Bmax % (vs T3)” value on THRα-LBD (setting [6]) was 36%. Besides, the selectivity ratio at THRβ-LBD [2] amounted to 13.5. In addition, in the series with C57BL/6cnc mice [3] (at end of study, high cholesterol diet mice), the “compound concentration in heart” value was “not detectable”. Besides, in the series on C57BL/6cnc mice [3] (compound concentration at end of study, high cholesterol diet mice), the “blood and liver distribution” value is given as “similar”. In addition, in the series on C57BL/6cnc mice [3] (high cholesterol diet mice), the “efficacy in reducing liver cholesterol compared with MGL-3196” value was “as effective as MGL-3196”. Besides, the values for the LDL-c entry in the series on C57BL/6cnc mice [3] (setting [7]) and in the series with C57BL/6cnc mice [5] were “reduced” and “significantly reduced”, respectively. The “plasma TC” value in the series on C57BL/6cnc mice [3] (setting [7]) is “reduced”; in the series on C57BL/6cnc mice [5], “significantly reduced”. Besides, in the series on C57BL/6cnc mice [3] (qPCR, mRNA of THRβ target gene, high cholesterol diet mice), the “expression of DIO1 in liver” value is listed as “dose-dependently upregulated”. In addition, at THRβ-LBD [4] (setting [6]), the “THRβ Bmax % (vs T3)” value turned out to be 51%. Besides, the “liver TC” value in the series with C57BL/6cnc mice [5] was “significantly reduced”.
Consider `N[C@@H](Cc1cc(I)c(Oc2ccc(O)c(I)c2)c(I)c1)C(=O)O` [Example T3, 3,5,3′-triiodo-L-thyronine, reference compound], for which, in the series with α-MHC, the “expression of cardiac α-MHC” value is on record as “responsive”. The heart rate increase with Thyroidectomized rats turned out to be 30%.
